Earlier results on six molecules are cited in patent US20100204282A1, “Reverse indoles as 5-lipoxygenase-activating protein (FLAP) inhibitors” (priority 2007, published 2010).

The conditions of data set [1]: for efficacy in asthma: in vivo.
The test system of data set [2] is porcine carotid injury model.
Data set [3] relates to rat photochemical model of endothelial injury.
Data set [4] relates to mouse model of renal ischemia.

Consider `O=C(O)[C@@H](c1ccc(OCc2ccc3ccccc3n2)cc1)C1CCCC1` [BAY X1005, (R)-2-[4-(quinolin-2-yl-methoxy)phenyl]-2-cyclopentyl acetic acid], for which the efficacy in asthma result in data set [1] is “have efficacy in asthma”. As to `CC(C)(C)Sc1c(CC(C)(C)C(=O)O)n(Cc2ccc(Cl)cc2)c2ccc(OCc3ccc4ccccc4n3)cc12` [MK-0591, 2-((5-((quinolin-2-yl)methoxy)-1-(4-chlorobenzyl)-3-(tert-butylthio)-1H-indol-2-yl)methyl)-2-methylpropanoic acid], the efficacy in asthma result in data set [1] is given as “have efficacy in asthma”. Turning to `CC(C)c1ccc2c(c1)c(SC(C)(C)C)c(CC(C)(C)C(=O)O)n2Cc1ccc(Cl)cc1` [MK-886, 2-((1-(4-chlorobenzyl)-3-(tert-butylthio)-5-isopropyl-1H-indol-2-yl)methyl)-2-methylpropanoic acid], in data set [1], the efficacy in asthma entry is reported as “have efficacy in asthma”. In addition, the postangioplasty vasoconstrictive response entry in data set [2] was “decreases the postangioplasty vasoconstrictive response”. Moreover, in data set [3], the “femoral artery intimal hyperplasia” value was “suppresses femoral artery intimal hyperplasia”. Turning to `CC(C)(O)c1ccccc1CCC(SCC1(CC(=O)O)CC1)c1cccc(C=Cc2ccc3ccc(Cl)cc3n2)c1` (stereo not drawn) [montelukast, [1-[[1-[3-[2-[(7-chloro-2-quinolyl)]vinyl]phenyl]-3-[2-(1-hydroxy-1-methyl-ethyl)phenyl]-propyl]sulfanylmethyl]cyclopropyl]acetic acid], the “efficacy in asthma and allergic rhinitis” value in data set [1] (CysLT1 receptor antagonist) is “efficacious in asthma and allergic rhinitis”. Turning to `COc1cc(C(=O)NS(=O)(=O)c2ccccc2C)ccc1Cc1cn(C)c2ccc(NC(=O)OC3CCCC3)cc12` [zafirlukast], the efficacy in asthma entry in data set [1] is “efficacious in asthma”. With `CC(c1cc2ccccc2s1)N(O)C(N)=O` (stereo not drawn) [zileuton], the efficacy in asthma result in data set [1] is “has efficacy in asthma”. The renal ischemia result in data set [4] is recorded as “reduce renal ischemia”.
